Where two headings read alike, the source gives them in different places.
How the values were obtained:
Type in all cases: cell-based
[1] = tested on: broad panel of different clinical isolates; experiment: microbe, parasite or virus in culture
Summary of the method: (§1)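 Per CLSI, MICs by broth microdilution or agar dilution; strains other than streptococci and anaerobes were sub-cultured overnight at 35° C on blood agar, with a final broth inoculum of 5×10^5 CFU/mL.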

B. fragilis ATCC 25285 = experiment: MIC (broth microdilution or agar dilution, CLSI); conditions: Bacteroides fragilis, read-out: MIC
Summary of the method: (§2)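 MICs follow CLSI broth microdilution or agar dilution, testing typically 128-0.06 μg/mL compound at 2.5% final DMSO, in triplicate with clindamycin comparator. Non-anaerobic strains use CaMHB at a final inoculum of 5×10^5 CFU/mL; anaerobes like C. difficile and C. scindens use specialized procedures.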

C. difficile ATCC 700057 = experiment: MIC (broth microdilution or agar dilution, CLSI)
Summary of the method: as §2

C. scindens ATCC 35704 = experiment: MIC (broth microdilution or agar dilution, CLSI)
Summary of the method: as §2

[2] = tested on: E. coli MP-74 LptD mutant; experiment: MIC (broth microdilution or agar dilution, CLSI); conditions: Escherichia coli
Summary of the method: as §2

E. faecium Clinical VRE = experiment: MIC (broth microdilution or agar dilution, CLSI); conditions: Enterococcus faecium, VRE
Summary of the method: as §2

E. faecium Line R & VRE = experiment: MIC (broth microdilution or agar dilution, CLSI)
Summary of the method: as §2

E. faecium VRE = experiment: MIC (broth microdilution or agar dilution, CLSI); conditions: Enterococcus faecium, VRE
Summary of the method: as §2

P. aeruginosa ATCC 27853 = experiment: MIC (broth microdilution or agar dilution, CLSI)
Summary of the method: as §2

P. aeruginosa ΔAmex OprM = experiment: MIC (broth microdilution or agar dilution, CLSI)
Summary of the method: as §2

S. aureus MRSA = experiment: MIC (broth microdilution or agar dilution, CLSI); conditions: Staphylococcus aureus
Summary of the method: as §2

S. aureus cErmA = experiment: MIC (broth microdilution or agar dilution, CLSI); conditions: Staphylococcus aureus
Summary of the method: as §2

A. baumannii ATCC 19606 = experiment: MIC (broth microdilution or agar dilution, CLSI)
Summary of the method: as §1

E. faecalis VRE = experiment: MIC (CLSI), second E. faecalis VRE line of Table 4; conditions: Enterococcus faecalis, VRE
Protocol: Minimum inhibitory concentrations (MICs) were determined by broth microdilution method or agar dilution method following the Clinical and Laboratory Standards Institute guidelines. Standard bacterial strains were obtained from American Type Culture Collection (ATCC). Other bacterial strains were obtained from hospitals and commercial sources, so noted in Table 11. Before the start of the MIC experiment, standard and test compound stock solutions were prepared in dimethyl sulfoxide (DMSO, Aldrich D2650) at a stock concentration of 5,120 μg/mL. The compound concentration range typically employed for each experiment was 128-0.06 μg/mL (2.5% final DMSO concentration). Clindamycin was used as a comparator in all experiments and each experiment was performed in triplicate. Specialized procedures were employed for streptococcal and anaerobic strains. All other bacterial strains were sub-cultured on blood agar plates (tryptic soy agar with 5% sheep blood, Hardy Diagnostics) and incubated overnight at 35° C. Organisms were suspended in cation-adjusted Mueller-Hinton broth (CaMHB, BD 212322) and optical density was adjusted to 0.5 McFarland standard. Suspensions were further diluted to obtain a final inoculum of 5×10^5 CFU/mL for broth microdilution experiments.

Measured: MIC

CCC[C@@H]1C[C@@H](C(=O)N[C@@H]([C@H]2O[C@H](SC)[C@H](O)[C@@H](O)[C@H]2O)[C@H](C)Cl)N(C)C1 [Clindamycin, clindamycin, reference compound]
4 µg/mL: [2]
0.5 µg/mL: [1]; Neisseria gonorrhoeae, N. gonorrhoeae HAV#702, Clinical | B. fragilis ATCC 25285; ATCC25285, B. fragilis HAV#013, ATCC 25285
> 128 µg/mL: [1]; Acinetobacter baumannii, A. baumannii HAV#660, Clinical | [1]; Enterococcus faecalis, VRE, E. faecalis HAV#251, Clinical VRE | [1]; Enterococcus faecium, VRE, E. faecium HAV#318, VanA | [1]; Enterococcus faecium, VRE, E. faecium HAV#320, Clinical | [1]; Escherichia coli, E. coli HAV#501, Clinical | [1]; Escherichia coli, E. coli HAV#512, Clinical | [1]; Escherichia coli, E. coli HAV#513, Clinical | [1]; Klebsiella pneumoniae, K. pneumoniae HAV#402, FQ-R | [1]; Klebsiella pneumoniae, K. pneumoniae HAV#405, Clinical | [1]; Klebsiella pneumoniae, K. pneumoniae HAV#406, Clinical | [1]; Klebsiella pneumoniae, K. pneumoniae HAV#407, Clinical | [1]; Klebsiella pneumoniae, K. pneumoniae HAV#408, Clinical | [1]; Klebsiella pneumoniae, K. pneumoniae HAV#409, ESBL-producing | [1]; Staphylococcus aureus, MRSA, S. aureus HAV#220, Line R | [1]; Staphylococcus aureus, MSSA, S. aureus HAV#219, Line R | [1]; Staphylococcus aureus, S. aureus HAV#217, cfr | [1]; Staphylococcus epidermidis, S. epidermidis HAV# 275 Clinical, cfr | [1]; Staphylococcus epidermidis, S. epidermidis HAV# 276, cfr | [1]; Staphylococcus epidermidis, S. epidermidis HAV#277, Line R | [1]; Staphylococcus epidermidis, S. epidermidis HAV#278 Line R | E. faecium Clinical VRE | E. faecium Line R & VRE; Enterococcus faecium | E. faecium VRE | P. aeruginosa ATCC 27853; Pseudomonas aeruginosa, ATCC27853 | S. aureus cErmA | A. baumannii ATCC 19606; Acinetobacter baumannii, ATCC19606 | E. faecalis VRE
8 µg/mL: [1]; Enterococcus faecalis, E. faecalis HAV#612, Line R | [1]; Enterococcus faecalis, S. faecalis 5074, Line R | [1]; Enterococcus faecium, E. faecium HAV#317, Clinical | [1]; Enterococcus faecium, E. faecium HAV#327, Clinical | [1]; Enterococcus faecium, E. faecium HAV#604, Clinical | [1]; Enterococcus faecium, VRE, E. faecium HAV#326, Clinical | [1]; Haemophilus influenzae, ATCC9007, H. influenzae HAV#376, ATCC-9007 | C. difficile ATCC 700057; C. difficile HAV#011, ATCC 700057 | C. difficile ATCC 700057; Clostridioides difficile, ATCC700057, C. difficile ATCC 700057, read-out: MIC
0.06 µg/mL: [1]; Staphylococcus aureus, S. aureus HAV#051, mecA, norA, spcl, ermA, aad1, aac6′-aph2″ | [1]; Staphylococcus aureus, S. aureus HAV#052, mecA, norA, fosB, blaZ | [1]; Staphylococcus aureus, S. aureus HAV#053 mecA, norA, fosB | [1]; Staphylococcus aureus, S. aureus HAV#214, Clinical
> 64 µg/mL: [1]; Staphylococcus aureus, S. aureus HAV#211, Clinical | [1]; Staphylococcus aureus, VISA, S. aureus HAV#203, Clinical (VISA) | [1]; Streptococcus pneumoniae, ATCC700673, S. pneumoniae HAV#352, ATCC 700673, MDR | [1]; Streptococcus pneumoniae, S. pneumoniae HAV#356, Clinical
2 µg/mL: [1]; Neisseria gonorrhoeae, N. gonorrhoeae HAV#701, Clinical | [1]; Staphylococcus haemolyticus, S. haemolyticus 5052, Line R & Methicillin R | [1]; Staphylococcus haemolyticus, S. haemolyticus HAV#252, Line R & Methicillin R | C. scindens ATCC 35704; C. scindens HAV#012, ATCC 35704 | C. scindens ATCC 35704; [Clostridium] scindens, ATCC35704, C. scindens ATCC 35704, read-out: MIC
16 µg/mL: [1]; Enterococcus faecalis, E. faecalis HAV#602, Clincal
1 µg/mL: B. fragilis ATCC 25285; ATCC25285, B. fragilis ATCC 25285
>128 µg/mL: E. faecium Line R & VRE; E. faecium HAV#319, Line R & Vanco R | P. aeruginosa ATCC 27853; P. aeruginosa HAV#009, ATCC 27853 | A. baumannii ATCC 19606; A. baumanii HAV#010, ATCC 19606
32 µg/mL: [1]; Acinetobacter baumannii, A. baumannii HAV#663, Clinical | P. aeruginosa ΔAmex OprM; P. aeruginosa HAV#039, ΔAmex OprM | P. aeruginosa ΔAmex OprM; Pseudomonas aeruginosa
0.25 µg/mL: [1]; Staphylococcus epidermidis, S. epidermidis HAV#279, Line R | [1]; Streptococcus pneumoniae, ATCCBAA255, S. pneumoniae HAV#354, ATCC-BAA-255 | [1]; Streptococcus pneumoniae, ATCCBAA334, S. pneumoniae HAV#353, ATCC-BAA-334 | [1]; Streptococcus pneumoniae, S. pneumoniae HAV#358, Clinical | S. aureus MRSA
128 µg/mL: [1]; Acinetobacter baumannii, A. baumannii HAV#651, Clinical | [1]; Acinetobacter baumannii, A. baumannii HAV#652 Clinical | [1]; Acinetobacter baumannii, A. baumannii HAV#655, Clinical | [1]; Acinetobacter baumannii, A. baumannii HAV#656, Clinical | [1]; Acinetobacter baumannii, A. baumannii HAV#657, Clinical | [1]; Acinetobacter baumannii, A. baumannii HAV#659, Clinical | [1]; Acinetobacter baumannii, A. baumannii HAV#664, Carbapenem R | [1]; Enterococcus faecalis, E. faecalis HAV#611, Line R & Vanco R | [1]; Enterococcus faecalis, S. faecalis 5060, Line R & Vanco R | [1]; Escherichia coli, E. coli HAV#511, Clinical | [1]; Escherichia coli, E. coli HAV#514, Clinical | [1]; Escherichia coli, E. coli HAV#516, ESBL-producing | [1]; Klebsiella pneumoniae, K. pneumoniae HAV#404, Clinical | [1]; Staphylococcus aureus, S. aureus HAV#216, Clinical, cfr
64 µg/mL: [1]; Acinetobacter baumannii, A. baumannii HAV#653, Clinical | [1]; Acinetobacter baumannii, A. baumannii HAV#654, Clinical | [1]; Acinetobacter baumannii, A. baumannii HAV#658, Clinical | [1]; Acinetobacter baumannii, A. baumannii HAV#661, Clinical | [1]; Acinetobacter baumannii, A. baumannii HAV#662, Clinical | [1]; Escherichia coli, E. coli HAV#503, Clinical
0.125 µg/mL: [1]; Staphylococcus aureus, S. aureus HAV#212, Clinical | [1]; Staphylococcus aureus, S. aureus HAV#213, Clinical | [1]; Staphylococcus aureus, S. aureus HAV#215, Clinical

Reference: patent US20230203081A1, “LINCOSAMIDE ANTIBIOTICS AND USES THEREOF” (President and Fellows of Harvard College, priority 2020, published 2023)
